# Test results published in PubChem BioAssay AID1053137 (Broad Institute, 2014).
# Experiments:
# [1] = test system: HepG2 PCSK9 mRNA, qRT-PCR, overnight; test: PCSK9 expression suppression by TRIB1 inducers – cell-based, RT-qPCR, cherry-pick, mechanism study for TRIB1 upregulator project, late-stage follow-up (AID 1053137)
# [2] = as above; conditions: HepG2 PCSK9 mRNA, qRT-PCR, overnight; measured here: maximal PCSK9 expression inhibition; stronger effect = higher value
SMILES,AC50 [1],inhibition [2]
CN1C(=O)c2cc(NC(=O)c3ccc(C(F)(F)F)cc3)ccc2OC[C@@H]2O[C@H](CC(=O)NC3Cc4ccccc4C3)CC[C@@H]21,110 nM,85%
CN1C(=O)c2cc(NC(=O)c3ccc(C(F)(F)F)cc3)ccc2OC[C@@H]2O[C@@H](CC(=O)NC3Cc4ccccc4C3)CC[C@@H]21,870 nM,87%
